Source: PMC9127750, “Structure-based design of CDC42 effector interaction inhibitors for the treatment of cancer” (Cell reports, 2022)
Where “and” joins values, the source holds several entries; their conditions need not be identical. Equal entries are not always repeated.

Test system: WM3248 melanoma cells, 486 antibodies
Experiment: Reverse phase protein arrays (RPPA)
Assay type: cell-based, Human
Conditions: 20 uM, single replicates
From the text: Pellets were snap frozen in liquid nitrogen and shipped to MD Anderson Cancer Center core RPPA facility for RPPA analysis (Table S5). Three biological replicates for each sample were generated.
Nomenclatures on the RPPA heatmaps: name_of_antibody.species_of_antibody.status_of_antibody. V - antibody validated; C - validation of antibody in progress; Q - antibody nonspecific; E – under evaluation; antibodies raised in M - mouse, G - goat, R - rabbit, or T - rat.

CN(C)c1cccc(Nc2cc(-c3ccccc3)nc(C3CCNCC3)n2)c1 [ARN22089, N1,N1-dimethyl-N3-(6-phenyl-2-(piperidin-4-yl)pyrimidin-4-yl)benzene-1,3-diamine]
RPPA level HSP60.R.V: 1.015 and 0.888 and 1.096 | RPPA level HSP70.R.C: 1.026 and 1.351 and 1.104 | RPPA level Hexokinase.I.R.C: 0.978 and 0.986 | RPPA level Hexokinase.II.R.V: 1.256 and 0.762 and 0.871 | RPPA level Hif.1αR.C: 0.972 and 1.096 and 0.645 | RPPA level Histone.H3.R.V: 1.540 and 13.252 and 0.726 | RPPA level Histone.H3_pS10.R.V: 1.398 and 3.688 and 0.992 | RPPA level IDO.R.C: 0.839 and 1.159 | RPPA level IGF1R_pY1135_Y1136.R.V: 0.898 and 1.026 and 1.052 | RPPA level IGFBP2.R.V: 0.627 and 0.801 and 1.270 | RPPA level IGFBP3.M.V: 0.715 and 1.003 and 1.004 | RPPA level IGFRb.R.C: 1.190 | RPPA level IL.6.R.C: 0.855 and 1.111 and 1.060 | RPPA level IMP3.R.C: 1.052 and 1.022 and 0.974 | RPPA level INPP4b.R.C: 1.077 and 0.833 and 0.806 | RPPA level IR.b.R.C: 0.907 and 1.208 and 1.333 | RPPA level IRF.1.R.V: 0.730 and 0.964 and 1.168 | RPPA level IRF.3.R.V: 0.995 and 0.906 and 0.945 | RPPA level IRS1.R.V: 1.014 and 1.159 and 1.141 | RPPA level IRS2.R.C: 1.278 and 1.343 and 1.011 | RPPA level JAB1.M.C: 0.955 and 0.936 and 1.024 | RPPA level JNK2.R.V: 0.819 and 0.805 and 1.152 | RPPA level JNK_pT183_Y185.R.C: 0.945 and 1.049 and 1.120 | RPPA level Jagged1.R.V: 0.981 and 1.189 | RPPA level Jak2.R.V: 1.014 and 1.017 | RPPA level KAP1.R.V: 1.154 and 0.878 | RPPA level KEAP1.R.V: 1.208 and 0.814 and 0.859 | RPPA level LAD1.R.V: 0.839 and 1.022 and 1.196 | RPPA level LC3A.B.R.C: 1.392 and 1.015 | RPPA level LCN2.R.V: 2.637 and 0.737 and 1.009 | RPPA level LDHA.R.C: 0.867 and 0.798 and 1.272 | RPPA level LRP6_pS1490.R.V: 0.973 | RPPA level Lasu1.R.V: 1.275 and 1.065 and 0.935 | RPPA level Lck.R.V: 1.245 and 1.124 and 1.192 | RPPA level Lyn.R.V: 1.188 and 0.948 | RPPA level MACC1.R.V: 1.006 and 1.026 and 0.991 | RPPA level MAPK_pT202_Y204.R.C: 0.788 and 0.541 and 0.701 | RPPA level MCT4.R.V: 0.646 and 0.854 and 1.188 | RPPA level MDM2_pS166.R.V: 1.371 and 1.241 and 1.078 | RPPA level MEK1.R.V: 0.858 and 3.823 and 2.342 | RPPA level MEK1_pS217_S221.R.V: 0.758 and 1.168 and 1.336 | RPPA level MEK2.R.V: 1.000 and 1.139 | RPPA level MERIT40.R.C: 0.830 and 0.763 | RPPA level MERIT40_pS29.R.V: 0.843 and 1.161 | RPPA level METTL3.R.V: 1.391 and 1.001 | RPPA level MIF.R.C: 1.003 and 0.889 and 0.956 | RPPA level MIG6.R.V: 0.962 and 1.022 and 0.982 | RPPA level MITF.R.V: 1.062 and 1.054 and 0.977 | RPPA level MLH1.M.V: 0.822 and 0.867 and 0.972 | RPPA level MLKL.R.V: 0.744 and 0.811 and 1.046 | RPPA level MMP2.R.V: 1.019 and 0.966 and 0.959 | RPPA level MMP14.R.V: 1.320 and 1.294 and 1.349 | RPPA level MR1.M.C: 0.957 and 1.152 and 0.970 | RPPA level MRAP.R.C: 0.958 and 1.263 and 1.157 | RPPA level MSH2.R.C: 0.876 and 0.877 and 0.987 | RPPA level MSH6.R.C: 1.224 and 1.204 and 1.063 | RPPA level MSI2.R.C: 1.222 and 1.004 | RPPA level MTCO1.M.V: 1.417 and 0.726 | RPPA level MTSS1.M.C: 0.974 and 1.002 and 0.966 | RPPA level Mcl.1.R.V: 0.716 and 0.788 and 1.009 | RPPA level MelanA.R.C: 1.005 | RPPA level Melanoma.gp100.R.C: 0.910 and 0.978 and 1.134 | RPPA level Merlin.R.C: 1.134 and 1.227 and 1.109 | RPPA level Midkine.R.V: 0.990 and 0.926 and 0.994 | RPPA level Mitofusin.1.R.V: 0.874 and 0.829 and 1.152 | RPPA level Mitofusin.2.R.V: 0.751 and 0.836 | RPPA level Mnk1.R.V: 0.933 and 0.905 and 1.031 | RPPA level mTOR.R.V: 0.956 and 0.920 | RPPA level mTOR_pS2448.R.C: 0.845 and 0.920 and 0.976 | RPPA p21.R.C: 1.050 and 0.570 and 0.863 | RPPA p27.Kip1.R.C: 1.342 and 1.132 and 0.997 | RPPA p27_pT157.R.C: 1.309 and 1.207 and 1.127 | RPPA p27_pT198.R.V: 1.003 and 1.297 and 1.169 | RPPA p38.MAPK.R.V: 0.937 and 0.864 and 1.143 | RPPA p38.MAPK._pT180_Y182.R.V: 0.828 and 1.168 and 1.281 | RPPA p38.a.M.V: 0.862 and 0.943 | RPPA p44.42.MAPK.R.V: 1.247 and 0.862 and 0.981 | RPPA p53.R.C: 0.928 and 1.483 and 1.058 | RPPA p70.S6K1.R.V: 1.060 and 0.948 | RPPA p70.S6K_pT389.R.V: 0.797 and 1.020 and 1.171 | RPPA p90RSK_pT573.R.C: 1.285 and 0.748 and 1.009
